# Counter-ions that a name gives are not always drawn. Like-named read-outs stand apart in the source and are kept apart here.
# Tests used:
# recombinant human 5-HT1A = biological target: T1, recombinant human 5-HT1A (Homo sapiens, UniProt P08908); assay: Radioligand binding to serotonin receptor 5-HT1A ([3H] 8-OH-DPAT, CHO membranes); conditions: for inhibition at 10 µM: read-out: 5-HT1A % inhibition
# T1 construct: expressed in transfected cells; host or cells: CHO
# T1 sequence (P08908 1-422): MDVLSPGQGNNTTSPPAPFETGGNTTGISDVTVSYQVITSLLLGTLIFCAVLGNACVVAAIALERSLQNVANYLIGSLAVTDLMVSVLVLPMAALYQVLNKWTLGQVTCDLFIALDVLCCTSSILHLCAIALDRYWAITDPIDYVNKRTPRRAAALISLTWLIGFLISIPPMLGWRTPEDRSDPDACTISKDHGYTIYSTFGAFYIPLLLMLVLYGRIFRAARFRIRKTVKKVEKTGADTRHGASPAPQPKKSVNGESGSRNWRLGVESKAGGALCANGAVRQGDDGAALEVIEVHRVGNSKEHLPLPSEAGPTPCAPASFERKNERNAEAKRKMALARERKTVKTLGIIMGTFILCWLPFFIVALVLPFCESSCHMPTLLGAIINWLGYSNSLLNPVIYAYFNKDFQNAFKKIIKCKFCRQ
# Text: J Pharmacol Exp Ther. 306(1): 301-309, 2003]. […] Metergoline is used as positive control.
# mice = assay: Mice Training in Morris Water Maze (Scopolamine); format: in vivo; conditions: unitary introduction of active ingredient; figures 10-13
# Protocol: Example 17. Mice Training in Morris Water Maze. A round pool which was filled with water at 20-22°C was used. A round ceramic platform of 14cm height was placed in the pool. Animals's behavior was registered with automated computer videosystem in combination with software package of movement analysis Any-maze (Stoelting Co., US). Before testing mice suitable for training were selected. That was done by placing the platform 1cm above the water level and putting an animal on the platform for 20 seconds. Then the mouse was sunk into the water on the opposite side of the pool, allowed to find the platform and climbed it […] 60 seconds, where it was left for additional 20 seconds. After that the mouse was repeatedly immersed into water on the opposite side of the pool and allowed to look for platform. If it failed in finding the platform within 60 seconds the experimentator helped it to find the platform and climb it. If the mice could not find the platform itself in two consecutive attempts it was excluded from experiment. During the next two days the platform was placed 0.5 centimeter lower the water level. Every day the mice were given four attempts for finding the platform within 60 seconds. The time interval between the attempts was 20 seconds, during which the mice stayed on the platform. Every day before the first attempt mouse was placed on the platform for 20 seconds. The time needed for finding and climbing the platform was registered. The animals were sunk in water in 3 different places on the side of the pool opposite to platform. On each day of two-day testing 35-40 minutes before the beginning of training the mice were injected intraintestinally with physiological solution, Scopolamine or Scopolamine in combination with investigated compound. At least 8 animals were used in each group. On the third day the platform was removed and each animal was placed one time in the pool for a period of 60 seconds. The time each mouse spent in the area where the platform had been located during the previous days was registered. This time interval was regarded as a measure of effectiveness of training fulfilled during the previous two days. The testing was carried out during the day time in isolated laboratory using "white noise" at level of about 70 decibel above the human hearing threshold.
# male mice of BALB/c line [1] = assay: Mice Behavior in the Elevated Plus Maze; format: in vivo; conditions: fig. 7-9; compared with Buspirone and Lorazepam
# Text: Example 16. […] The length of each arm of the maze was 30cm, width is 5cm, and height of the walls was 15cm. Two opposite arms were closed from both sides and end faces by transparent walls, the other two arms were lit and opened. A mouse was placed in the center of the maze and for the next five minutes the number of entries into opened and closed arms and the time spent in each type of arms was registered. […] The animals usually avoided opened arms (the preference index is between 0.2 and 0.3). Compounds with tranquilizing action increased this index up to 0.5-0.6 or even more and reduced the number of defecations without changing the overall motion activity of the mice (the total number of their entries to the arms).
# male mice of BALB/c line [2] = assay: Passive Avoidance of mice in the Shuttle Chamber, memory disturbed by Scopolamine; format: in vivo; conditions: Scopolamine 0.3 mg/kg, injected 30 minutes before training; figures 1-3
# Protocol: Example 14. […] A shuttle chamber (Ugo Basile, Italy) consisted of two sections was used. […] The sections were connected through a hole which could be overlapped by a vertical door. The floor was made of transverse metal bars on which DC current impulses could be fed. Experiments were carried out in aged male mice of BALB/c line weighing 20-24 grams.
# Each group consisted of at least 8 animals. Animal was placed in light section, and latent period of the first entry into dark chamber was registered. Then the vertical door was closed and the animal was punished by 0.6 mA DC current for 3 seconds. After that it was taken back to its homecage. In 22-24 hours the same animal was placed again in light section of the shuttle chamber and latent period of its first entry into dark section, the total time of its stay in light section, and the number of entries into dark section, were registered. Each monitoring lasted for 5 minutes.
# Testing was carried out during the day time in isolated laboratory using white noise at level of about 70 decibel above human hearing threshold.
# Scopolamine causes the disturbance of training (memory loss) that results in […].
# male mice of BALB/c line [3] = assay: Passive Avoidance of mice in the Shuttle Chamber, memory disturbed by MK-801; format: in vivo; conditions: MK-801 0.1 mg/kg, injected 30 minutes before training; fig. 4-6
# Protocol: Example 15. […] The testing was carried out as in example 14. […] Concurrently, physiological solution of MK-801 in combination with active ingredient 1.9 (1) 1/2NDSA was injected intraintestinally to independent group of mice before training.
smiles,measurement,setting,value
Cc1ccc2c(c1)[C@@H]1CN(C)CCC[C@@H]1N2CCc1ccc(C)nc1 (relative stereo) [1.6.1(2)·3HCl],inhibition at 10 µM,recombinant human 5-HT1A,-9%
"Cc1ccc2c(c1)c1c(n2CCc2ccccc2)CCN(C)C1 [1.1.2(1-2)·HCl, 2,8-dimethyl-5-phenethyl-1,2,3,4-tetrahydro-1H-pyrido[4,3-b]indole hydrochloride]",inhibition at 10 µM,recombinant human 5-HT1A,84%
"Cc1ccc(CCn2c3c(c4cc(C)ccc42)CN(C)CC3)cc1 [1.1.2(1-3), 2,8-dimethyl-5-[2-(4-methylphenyl)-ethyl]-1,2,3,4-tetrahydro-1H-pyrido[4,3-b]indole]",5-HT1A % inhibition,recombinant human 5-HT1A; 10 µM ligand,68%
Cc1ccc2c(c1)c1c(n2CCc2ccccn2)CCN(C)C1 [1.1.2(2-3)·2HCl],memory disorders caused by Scopolamine (time spent in area of the platform),mice,decreasing memory disorders
Cc1ccc2c(c1)c1c(n2CCc2ccc(C)nc2)CCN(C)C1 [1.1.2(4-2)·2HCl],inhibition at 10 µM,recombinant human 5-HT1A; 10 µM ligand,9%
Cc1ccc2c(c1)c1c(n2CCc2ccccn2)CCCN(C)C1 [1.2.2(2-2)],5-HT1A % inhibition,recombinant human 5-HT1A; 10 µM ligand,-5%
"CN1CCc2c(c3ccccc3n2Cc2ccccc2)C1 [1.9(1)·1/2NDSA, bis-(5-benzyl-2-methyl-2,3,4,5-tetrahydro-1H-pyrido[4,3-b]indole) naphthalene-1,5-disulfonate]",Anxiolytic (tranquilizing) action,male mice of BALB/c line [1],exhibits anxiolytic (tranquilizing) action
same,enhancement of memory disturbed by Scopolamine,male mice of BALB/c line [2],nootropic action
same,memory enhancement disturbed by MK-801,male mice of BALB/c line [3],act as nootropic
